In brackets after ≈: the same amount, converted by molar mass. Structures can show the parent of a compound that is named as a salt.
What was measured:
[1] = test system: mouse grafted liver cancer H22; assay: Activity against mouse grafted liver cancer H22; type: in vivo, Kunming mice; conditions: for Tumor weight: X ± SD, n = 10; for Average weight (g)-after administration / Average weight(g)-after administration: mouse, in vivo
Summary of the method: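 Male Kunming mice inoculated with liver cancer H22, 10 per group; compounds (10%, 0.4, 0.2 or 0.1 ml/mouse) injected from the day after inoculation on alternate days, 6 doses. Tumours excised the day after last dose; inhibition rate from mean tumour weight versus saline controls; repeated three times.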

MDCK (dog kidney) cells = assay: Toxicity TC50 of the samples in MDCK cells (influenza screening); conditions: concentration of 50% toxicity
[2] = test system: A-549 human lung adenocarcinoma; assay: In vitro anti-tumor IC50 (MTT), A-549; type: cell-based
Experimental: (§1) (1) Single cell suspension was seeded into 96-well plates (the cells was diluted in the PRMI-1640 minimum medium to 3×10^4 cells/ml, […] diluted cells/well). […] The experiments were performed in quadruplicate.
(§2) (2) The medium was removed. Solutions of the anti-tumor agents (50 compounds) were prepared in a freshly prepared medium at serial concentrations. […] of the solution was added into each well. Incubation was continued for 48 hours.
(§3) (3) 20 ug of 2 mg/ml MTT was added into each well, and incubated for 4 hours.
(§4) (4) The medium was removed from the well. The microplates were swiftly turned down to throw-off the medium. […] of DMSO was added into each well, and vortexed at room temperature for 10 minutes.
(§5) (5) OD value (λ=570 nm) was measured with an Enzyme-Linked Detector.
(§6) (6) The graph of cell vitality was plotted, and IC50 was calculated.

Hepatitis B virus (HBV) = type: cell-based
[3] = test system: SMMC-7721 human hepatic carcinoma; assay: In vitro anti-tumor IC50 (MTT), SMMC-7721; type: cell-based
Experimental: as §1, §2, §3, §4, §5, §6

[4] = test system: LLC mouse Lewis lung carcinoma; assay: In vitro anti-tumor IC50 (MTT), LLC; type: cell-based; conditions: Table 4
Experimental: as §1, §2, §3, §4, §5, §6

HepG2 cells = assay: Cell status of HepG2 cells treated with sample (HBV screening); type: cell-based; conditions: 200 μg/ml, HepG2, four days after infection
Experimental: 1.5 Screening for the agents: The HepG2 cells were counted and 1.5×10^4 cells/well were seeded into a 96-well plate. After incubation overnight in an atmosphere of CO2 at 37° C., each of the experimental samples in a given concentration was added to the cells. After incubation at 37 °C for 24 hrs, the HepG2 treated with the samples were infected with vAcGFPHBVc of 100 MOI. A negative control and a positive control were also included. Four days after infection, the growth of the cells were observed, and the HBV e antigen in the supernatant was measured with the HBV e antigen diagnostic kit.

[5] = test system: mouse grafted sarcoma S-180; assay: Activity against mouse grafted sarcoma S-180; type: in vivo, Kunming mice; conditions: for Inhibition rate (%) / Tumor weight: 6 doses; for Tumor weight: X ± SD, n = 10; for Average weight (g)-after administration / Average weight(g)-after administration: mouse, in vivo, iv
Summary of the method: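 Male Kunming mice inoculated axillarily with S-180, 10 per group, given 10% compound solutions IV at 0.4, 0.2 or 0.1 ml/mouse from the day after inoculation, alternate days, 6 doses. Tumours excised the day after last dose; inhibition rate from mean tumour weight versus saline control; repeated three times.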

[6] = test system: Bel-7402 human hepatic carcinoma; assay: In vitro anti-tumor IC50 (MTT), Bel-7402; type: cell-based
Experimental: as §1, §2, §3, §4, §5, §6

[7] = H22, first experiment, 10 mg/kg i.v., 6 doses
[8] = H22, first experiment, 20 mg/kg i.v., 6 doses
[9] = H22, first experiment, 40 mg/kg i.v., 6 doses
[10] = H22, second experiment, 10 mg/kg
[11] = H22, second experiment, 20 mg/kg
[12] = H22, second experiment, 40 mg/kg
[13] = H22, third experiment, 10 mg/kg
[14] = H22, third experiment, 20 mg/kg
[15] = H22, third experiment, 40 mg/kg
[16] = three different concentrations (40, 20, 10 mg/kg), i.v.
[17] = S-180, first experiment, 10 mg/kg i.v.
[18] = S-180, first experiment, 20 mg/kg i.v.
[19] = S-180, first experiment, 40 mg/kg i.v.
[20] = S-180, second experiment, 10 mg/kg i.v.
[21] = S-180, second experiment, 20 mg/kg i.v.
[22] = S-180, second experiment, 40 mg/kg i.v.

Compound: CC(C)C1CC23OC1(O)C/C(=C\Nc1ccc(O)cc1)C2CCC3C (stereo not drawn) [Compound 6, Curcumol p-hydroxy aniline hydrochloride]
- Inhibition rate (%) [1, 7]: 7.0%
- Tumor weight [1, 7]: 2.8 ± 0.37 g
- Inhibition rate (%) [1, 8]: 47.0%
- Tumor weight [1, 8]: 1.60 ± 0.29 g
- Inhibition rate (%) [1, 9]: 61.9%
- Tumor weight [1, 9]: 1.15 ± 0.31 g
- Inhibition rate (%) [1, 10]: 13.9%
- Tumor weight [1, 10]: 2.6 ± 0.37 g
- Inhibition rate (%) [1, 11]: 47.7%
- Tumor weight [1, 11]: 1.58 ± 0.29 g
- Inhibition rate (%) [1, 12]: 60.3%
- Tumor weight [1, 12]: 1.21 ± 0.31 g
- Inhibition rate (%) [1, 13]: 7.3%
- Tumor weight [1, 13]: 2.8 ± 0.37 g
- Inhibition rate (%) [1, 14]: 46.0%
- Tumor weight [1, 14]: 1.63 ± 0.29 g
- Inhibition rate (%) [1, 15]: 56.9%
- Tumor weight [1, 15]: 1.30 ± 0.31 g
- Average weight (g)-after administration ([1]; 10 mg/kg): 21.2 g
- Average weight(g)-after administration ([1]; 10 mg/kg): 21.0 g
- Average weight (g)-after administration ([1]; 20 mg/kg): 20.0 g
- Average weight(g)-after administration ([1]; 20 mg/kg): 22.0 g
- Average weight (g)-after administration ([1]; 40 mg/kg): 21.4 g
- Average weight(g)-after administration ([1]; 40 mg/kg): 22.4 g
- Average weight(g)-after administration ([1]; iv, 10 mg/kg): 22.0 g
- Average weight(g)-after administration ([1]; iv, 20 mg/kg): 22.2 g
- Average weight(g)-after administration ([1]; iv, 40 mg/kg): 22.1 g
- inhibitory effect against mouse grafted liver cancer H22 (in words) [1, 16]: good inhibitory effect
- TC50 (MDCK (dog kidney) cells): 192.45 µg/mL
- IC50 (ug/ml) against tumor cell lines, A-549 ([2]; Table 4, hydrochloride): 2.1 µg/mL
- (Value of the positive control - Measured Value) Value of the positive control × 100% (Hepatitis B virus (HBV); 200 μg/ml, decrease of HBeAg relative to positive control): 93.43%
- OD450 of HBeAg (Hepatitis B virus (HBV); 200 μg/ml, supernatant four days after infection, positive control 1.917, negative 0.057): 0.126
- activity against HBV (in words) (Hepatitis B virus (HBV); primary screening, HBV e antigen, HepG2, 13 samples): had the activity against HBV
- IC50 (ug/ml) against tumor cell lines, SMMC-7721 ([3]; Table 4, hydrochloride): 4.0 µg/mL
- IC50 (ug/ml) against tumor cell lines, LLC ([4]; hydrochloride): 3.8 µg/mL
- Cell status (HepG2 cells): Normal
- Inhibition rate (%) [5, 17]: 56%
- Tumor weight [5, 17]: 1.1 ± 0.31 g
- Inhibition rate (%) [5, 18]: 68.4%
- Tumor weight [5, 18]: 0.79 ± 0.21 g
- Inhibition rate (%) [5, 19]: 75.2%
- Tumor weight [5, 19]: 0.62 ± 0.34 g
- Inhibition rate (%) [5, 20]: 57.7%
- Tumor weight [5, 20]: 1.1 ± 0.31 g
- Inhibition rate (%) [5, 21]: 68.8%
- Tumor weight [5, 21]: 0.82 ± 0.32 g
- Inhibition rate (%) [5, 22]: 72.7%
- Tumor weight [5, 22]: 0.71 ± 0.44 g
- Average weight (g)-after administration ([5]; 10 mg/kg): 22.3 g
- Average weight(g)-after administration ([5]; 10 mg/kg): 22.3 g
- Average weight (g)-after administration ([5]; 20 mg/kg): 22.9 g
- Average weight(g)-after administration ([5]; 20 mg/kg): 21.9 g
- Average weight (g)-after administration ([5]; 40 mg/kg): 22.0 g
- Average weight(g)-after administration ([5]; 40 mg/kg): 22.0 g
- inhibitory effect against mouse sarcoma S-180 (in words) [5, 16]: good inhibitory effect
- IC50 (ug/ml) against tumor cell lines, Bel-7402 ([6]; Table 4, hydrochloride): 1.0 µg/mL

Compound: CC(C)C1CC23OC1(O)C/C(=C\Nc1ccc(O)cc1)C2CCC3C (stereo not drawn) [Compound 5, Curcumol p-hydroxy aniline]
- IC50 ([2]; Homo sapiens, A549, Table 4, read-out: IC50 (ug/ml) against tumor cell lines, A-549): 2 µg/mL (≈ 5.82 µM)
- IC50 ([3]; Homo sapiens, SMMC-7721, Table 4, read-out: IC50 (ug/ml) against tumor cell lines, SMMC-7721): 4.3 µg/mL (≈ 12.5 µM)
- IC50 ([4]; Mus musculus, Lewis lung carcinoma, read-out: IC50 (ug/ml) against tumor cell lines, LLC): 3.6 µg/mL (≈ 10.5 µM)
- IC50 ([6]; Homo sapiens, Bel-7402, Table 4, read-out: IC50 (ug/ml) against tumor cell lines, Bel-7402): 0.9 µg/mL (≈ 2.62 µM)

From US7700584B2 (Hangzhou Minsheng Pharmaceuticals Co., Ltd., priority 2004, dated 2010)
